Molecules are shown by their SMILES.

Assay [1] addresses JAK1 (recombinant purified GST-tagged catalytic domain) (Homo sapiens (Human), UniProt P23458). Put plainly: Jak Biochemical HTRF Assay (JAK1). As to conditions: [ATP] 31.8 μM. An outline of the steps: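 Compounds in DMSO were pre-equilibrated with enzyme and biotinylated peptide, then ATP was added and the reaction proceeded 120 min at room temperature. EDTA-based stop buffer with detection reagents was added, and after 60 min the time-resolved FRET ratio was read. IC50s came from 4-parameter dose–response fits.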

In assay [2] the target is JAK2 (recombinant purified GST-tagged catalytic domain) (Homo sapiens (Human), UniProt O60674). Description: Jak Biochemical HTRF Assay (JAK2). The following applies: [ATP] 8.5 μM. A general note: TR-FRET usually uses a lanthanide donor and a delayed reading to cut background.
Chain of JAK2 (recombinant purified GST-tagged catalytic domain) (O60674 849-1124): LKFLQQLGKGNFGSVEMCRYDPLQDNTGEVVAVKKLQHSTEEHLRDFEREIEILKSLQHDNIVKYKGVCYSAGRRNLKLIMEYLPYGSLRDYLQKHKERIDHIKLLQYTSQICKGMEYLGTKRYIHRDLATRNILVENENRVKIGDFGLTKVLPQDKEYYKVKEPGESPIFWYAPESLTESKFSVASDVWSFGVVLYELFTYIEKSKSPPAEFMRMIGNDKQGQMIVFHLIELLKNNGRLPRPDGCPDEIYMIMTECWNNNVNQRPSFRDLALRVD

Chain of JAK1 (recombinant purified GST-tagged catalytic domain) (P23458 875-1153): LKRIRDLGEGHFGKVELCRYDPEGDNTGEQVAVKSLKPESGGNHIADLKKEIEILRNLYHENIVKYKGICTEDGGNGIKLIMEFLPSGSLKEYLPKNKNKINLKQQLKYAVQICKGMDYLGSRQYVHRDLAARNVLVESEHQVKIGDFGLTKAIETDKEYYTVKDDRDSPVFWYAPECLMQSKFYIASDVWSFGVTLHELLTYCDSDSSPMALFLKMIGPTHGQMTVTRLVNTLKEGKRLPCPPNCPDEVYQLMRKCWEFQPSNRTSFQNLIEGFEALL

Broadly, the IC50 is the point on the concentration scale where inhibition reaches its midpoint. Regarding `CC(C)S(=N)(=O)c1ccc(Nc2nn([C@]3(CC#N)CCCOC3)c3cc[nH]c(=O)c23)cc1` (single isomer, unassigned) [Example 5-232, 2-((3S)-3-(4-oxo-3-((4-(propan-2-yl-(S or R)-sulfonimidoyl)phenyl)amino)-4,5-dihydro-1H-pyrazolo[4,3-c]pyridin-1-yl)tetrahydro-2H-pyran-3-yl)acetonitrile], the IC50 in assay [1] came to 0.27 nM; in assay [2], 0.6 nM.

In the case of `CC(C)(C)OC(=O)N1CC(CC#N)(n2nc(NC3CC3)c3c(=O)[nH]ccc32)C1` [Example 3, tert-butyl 3-(cyanomethyl)-3-[3-(cyclopropylamino)-4-oxo-4,5-dihydro-1H-pyrazolo[4,3-c]pyridin-1-yl]azetidine-1-carboxylate], the IC50 in assay [1] is 40.8 nM; in assay [2] it was 2.51 nM.

For the compound `CCNc1nn(C2(CC#N)CCN(C(=O)OC(C)(C)C)CC2)c2cc[nH]c(=O)c12` [Example 2-1, tert-butyl 4-(cyanomethyl)-4-[3-(ethylamino)-4-oxo-4,5-dihydro-1H-pyrazolo[4,3-c]pyridin-1-yl]piperidine-1-carboxylate], the half-inhibitory concentration (IC50) in assay [1] was found to be 48.2 nM; in assay [2], 60.3 nM.

Consider `CO[C@@H](c1ccc(Nc2nn([C@]3(CC#N)CC[C@@H](C(=O)OC(C)(C)C)OC3)c3cc[nH]c(=O)c23)cc1)C(F)(F)F` (single isomer, unassigned) [Example 21-8, (2S,5S)-tert-butyl 5-(cyanomethyl)-5-(4-oxo-3-((4-((S or R)-2,2,2-trifluoro-1-methoxyethyl)phenyl)amino)-4,5-dihydro-1H-pyrazolo[4,3-c]pyridin-1-yl)tetrahydro-2H-pyran-2-carboxylate], for which the IC50 in assay [1] was found to be 0.38 nM; in assay [2], 1.03 nM.

`Cc1cc(Nc2nn([C@@]3(CC#N)CCCC[C@H]3F)c3cc[nH]c(=O)c23)ccc1C(=O)N1CCC(F)(F)CC1` [Example 5-153, 2-((1R,2R)-1-(3-((4-(4,4-difluoropiperidine-1-carbonyl)-3-methylphenyl)amino)-4-oxo-4,5-dihydro-1H-pyrazolo[4,3-c]pyridin-1-yl)-2-fluorocyclohexyl) acetonitrile]: the IC50 in assay [1] was determined as 0.09 nM; in assay [2], 0.08 nM.

As to `CCOC(=O)C(C)(C)C(O)(c1ccc(Nc2nn([C@]3(CC#N)CCCOC3)c3cc[nH]c(=O)c23)cc1)C(F)(F)F` (single isomer, unassigned) [Example 5-113, (S or R)-ethyl 3-(4-((1-((3S)-3-(cyanomethyl)tetrahydro-2H-pyran-3-yl)-4-oxo-4,5-dihydro-1H-pyrazolo[4,3-c]pyridin-3-yl)amino)phenyl)-4,4,4-trifluoro-3-hydroxy-2,2-dimethylbutanoate], the 50% inhibitory concentration (IC50) in assay [1] amounted to 0.28 nM; in assay [2] it was 0.34 nM.

With `N#CC[C@]1(n2nc(Nc3ccc(Cl)c(F)c3)c3c(=O)[nH]ccc32)CC[C@@H](NC2CCCCC2)CC1` [Example 18-22, Cis 2-(1-(3-((4-chloro-3-fluorophenyl)amino)-4-oxo-4,5-dihydro-1H-pyrazolo[4,3-c]pyridin-1-yl)-4-(cyclohexylamino)cyclohexyl)acetonitrile], the IC50 in assay [1] was 20.5 nM; in assay [2], greater than 1500 nM.

Turning to `CC(C)(C)OC(=O)[C@@H]1CC[C@@](CC#N)(n2nc(Nc3ccc(C4(C(F)(F)F)CCNC4)cc3)c3c(=O)[nH]ccc32)CO1` (single isomer, unassigned) [Example 5-284, (2S,5S)-tert-butyl 5-(cyanomethyl)-5-(4-oxo-3-((4-((R or S)-3-(trifluoromethyl)pyrrolidin-3-yl)phenyl)amino)-4,5-dihydro-1H-pyrazolo[4,3-c]pyridin-1-yl)tetrahydro-2H-pyran-2-carboxylate], the half-inhibitory concentration (IC50) in assay [1] was found to be 0.15 nM; in assay [2], 0.24 nM.

For the compound `CC(C)(C)OC(=O)N1CC(CC#N)(n2nc(Nc3ccnc(F)c3)c3c(=O)[nH]ccc32)C1` [Example 5-46, tert-butyl 3-(cyanomethyl)-3-{3-[(2-fluoropyridin-4-yl)amino]-4-oxo-4,5-dihydro-1H-pyrazolo[4,3-c]pyridin-1-yl}azetidine-1-carboxylate], the IC50 in assay [1] was 3.53 nM; in assay [2], 43.5 nM.

With `COC(=O)N1CCC(CC#N)(n2nc(Nc3ccc(F)cc3)c3c(=O)[nH]ccc32)CC1` [Example 5-146, methyl 4-(cyanomethyl)-4-(3-((4-fluorophenyl)amino)-4-oxo-4,5-dihydro-1H-pyrazolo[4,3-c]pyridin-1-yl)piperidine-1-carboxylate], the results for the IC50 in assay [1] and in assay [2] were 0.3 nM and 2 nM, respectively.

Regarding `CC(C)(C)OC(=O)N1CC[C@](CC#N)(n2nc(Nc3ccc(S(C)(=O)=O)cc3)c3c(=O)[nH]ccc32)[C@H](F)C1` [Example 5-17, tert-butyl (3R,4R)-4-(cyanomethyl)-3-fluoro-4-(3-{[4-(methylsulfonyl)phenyl]amino}-4-oxo-4,5-dihydro-1H-pyrazolo [4,3-c]pyridin-1-yl) piperidine-1-carboxylate], the values for the IC50 in assay [1] and in assay [2] were 0.09 nM and 0.08 nM, respectively.

On to `CC(C)(C)OC(=O)[C@@H]1CC[C@@](CC#N)(n2nc(Nc3cnc4ccccc4c3)c3c(=O)[nH]ccc32)CO1` [Example 5-221, (2S,5S)-tert-butyl 5-(cyanomethyl)-5-(4-oxo-3-(quinolin-3-ylamino)-4,5-dihydro-1H-pyrazolo[4,3-c]pyridin-1-yl)tetrahydro-2H-pyran-2-carboxylate], for which the values for the IC50 in assay [1] and in assay [2] were 0.35 nM and 5.29 nM, respectively.

As to `CC(C)(C)N[C@@H](c1ccc(Nc2nn([C@@]3(CC#N)CCOC[C@H]3F)c3cc[nH]c(=O)c23)cc1)C(F)(F)F` (single isomer, unassigned) [Example 5-268, 2-((3S,4S or 3R,4R)-4-(3-((4-((S or R)-1-(tert-butylamino)-2,2,2-trifluoroethyl)phenyl)amino)-4-oxo-4,5-dihydro-1H-pyrazolo[4,3-c]pyridin-1-yl)-3-fluorotetrahydro-2H-pyran-4-yl)acetonitrile], the IC50 in assay [1] came to 2.63 nM; in assay [2], 4.78 nM.

Take `CC(C)(C)OC(=O)N1CCC(CC#N)(n2nc(Nc3ccccc3)c3c(=O)[nH]ccc32)CC1` [Example 1-2, tert-butyl 4-(cyanomethyl)-4-(4-oxo-3-(phenylamino)-4,5-dihydro-1H-pyrazolo[4,3-c]pyridin-1-yl)piperidine-1-carboxylate]: the 50% inhibitory concentration (IC50) in assay [1] was found to be 0.45 nM; in assay [2], 11.9 nM.

Turning to `Cc1cc(Nc2nn([C@]3(CC#N)CC[C@@H](C(=O)OC(C)(C)C)OC3)c3cc[nH]c(=O)c23)ccc1C(=O)N1CCOC(C)C1` (single isomer, unassigned) [Example 20-11, (2S,5S)-tert-butyl 5-(cyanomethyl)-5-(3-((3-methyl-4-((S or R)-2-methylmorpholine-4-carbonyl)phenyl)amino)-4-oxo-4,5-dihydro-1H-pyrazolo[4,3-c]pyridin-1-yl)tetrahydro-2H-pyran-2-carboxylate], the IC50 was found to be 0.23 nM in assay [1] and 0.35 nM in assay [2].

As to `CC(C)(C)OC(=O)[C@@H]1CC[C@@](CC#N)(n2nc(Nc3ccc(S(=O)(=O)C(C)(C)C)cc3)c3c(=O)[nH]ccc32)CO1` [Example 5-235, (2S,5S)-tert-butyl 5-(3-((4-(tert-butylsulfonyl)phenyl)amino)-4-oxo-4,5-dihydro-1H-pyrazolo[4,3-c]pyridin-1-yl)-5-(cyanomethyl) tetrahydro-2H-pyran-2-carboxylate], the half-maximal inhibitory concentration (IC50) in assay [1] stood at 0.14 nM; in assay [2], 0.21 nM.

For the origin of these results see patent publication US9957264B2 (Merck Sharp & Dohme Corp., priority 2013, dated 2018).
